{"source": "patent US12686664B2", "about": "“SOCE inhibitors and therapeutic uses thereof” (Institut National de la Santé et de la Recherche Médicale …, priority 2020, dated 2026)", "format_in_all_cases": "cell-based", "key": {"[1]": {"tested_on": "store-operated Ca^2+ entry in PLP-B lymphocytes", "assay": "Store-operated Ca2+ entry after thapsigargin depletion of ER Ca2+ stores in PLP-B lymphocytes", "settings": "for inhibition at 0.1 µM / inhibition at 1 µM / inhibition at 10 µM / inhibition at 50 µM / inhibition at 100 µM: PLP-B lymphocytes, % of inhibition (−) or activation", "protocol": "(§1) The effects of the molecules developed were tested on PLP-B lymphocytes. Store-operated Ca^2+ entry was induced by depletion of Endoplasmic Reticulum Ca^2+ stores (ER Ca^2+ stores) with thapsigargin (Tg) in a Ca^2+-free medium and measured following the addition of 1.8 mM of CaCl2) in the extracellular medium. The results are compared to the results obtained for known SOCE inhibitors SKF-96365, GSK-7975A, Synta 66."}, "[2]": {"tested_on": "store-operated Ca^2+ entry in HEK 293", "assay": "Store-operated Ca2+ entry in HEK 293 cell line", "settings": "for Effect on amplitude of SOCE peak: % of inhibition (−) or activation", "protocol": "as §1\n(§2) Then, effects of the molecule that gave the best results in this test (i.e., molecule 6αa) were assessed in two cancer cell lines, namely: HEK 293 and HEK 651 HS1 tumor cell lines."}, "[3]": {"tested_on": "store-operated Ca^2+ entry in HEK 651 HS1", "assay": "Store-operated Ca2+ entry in HEK 651 HS1 cell line", "settings": "for Effect on amplitude of SOCE peak: % of inhibition (−) or activation", "protocol": "as §1, §2"}, "[4]": {"tested_on": "SOCE in JOK B cells", "assay": "Intracellular calcium levels / SOCE in JOK B cells (Fura-2AM, FlexStation 3)", "protocol": "Intracellular calcium levels were monitored at 37° C. using the FlexStation 3™ (Molecular Devices, Berkshire, UK), a fluorescence plate reader measuring time-resolved intracellular Ca^2+ concentration in a 96-well format with cells loaded with the dual-wavelength fluorescent calcium-sensitive dye Fura-2AM.\nIntracellular Ca^2+ stores were depleted with 2 μM Thapsigargin (an inhibitor of ER SERCA pumps) under Ca^2+-free conditions to determine the magnitude of intracellular Ca^2+ release. Next, the cells were returned to Ca^2+-containing Hepes-buffered solution to measure SOCE. The magnitude of SOCE was estimated as the maximal values of normalized fluorescence ratio following Ca^2+ re-addition."}, "[5]": {"tested_on": "JOK cells", "assay": "JOK cell viability and apoptosis assays (LIVE/DEAD, Annexin V-FITC/PI)", "protocol": "Cell Viability Assays. JOK cells were treated with test compounds (GSK-7975-A, SKF-93365 and 6αa) or solvent for 48 hours. JOK cells viability was then assessed using LIVE/DEAD cell viability assays kit (Abcam). Differentially labeled live and dead cells with fluorescent dyes are analyzed by flow cytometry.\nApoptosis Assay. Apoptosis of JOK cells were determined by Annexin V-FITC/PI staining (Biolegend) using flow cytometry. The percentage of annexin V-FITC and propidium iodide-[…] cells were assessed using Kaluza 1.3."}, "[6]": {"tested_on": "HUVEC cells", "assay": "HUVEC cell death (Annexin/Propidium Iodide, flow cytometry)", "settings": "HUVEC (FIG. 8)", "protocol": "FIG. 8. In vitro Effects of 6αa, GSK-7975-A and SKF-93365 on HUVEC Cell Death. […] Cell death was analyzed by flow cytometry following Annexin/Propidium Iodide labeling. Percentages of living cells, necrotic cells and apoptotic cells submitted to GSK-7975A (A), SKF-93365 (B), and 6αa (DAD 3-473) (C) treatment were normalized to the DMSO treatment conditions. Histograms present the amounts of apoptotic cells (annexin/PI positive cells) detected in each experimental condition after treatment with GSK-7975A (D), SKF-93365 (E), and 6αa (DAD 3-473) (F). Data are expressed as mean±SEM of n observations (n=2). Data are analyzed with non parametric Mann Withney analysis, *P<0.05, **P<0.01 and ***P<0.001."}, "[7]": {"tested_on": "JOK cells", "assay": "Migration of JOK cells through HUVEC in transwells", "settings": "5 or 20 μM", "protocol": "Migration Protocol. Migration chambers (transwells) (Transwell 5.0 m polycarbonate membrane Costar) were coated overnight (37° C., 5% CO2) with 100 μL of fibronectine solution containing BSA (1 mg/ml) and LHC Basal Medium. Primary HUmbilical Vein Endothelial Cells (HUVEC) were seeded in each transwell (100 000/well) and cultured for 24 hours (37° C., 5% CO2). To evaluate B cell migration, JOK cells were added (300 000/well) to each transwell upper chamber containing RPMI 1640 medium (BioWest) containing 0.5% BSA and SDF1 (200 ng/ml) was added in the bottom chamber. Cells were cultures in the presence or absence of a test compound (GSK-7975-A, SKF-93365 and 6αa) or solvent. After 24 hours (37° C., 5% CO2), migrated cells were collected in the bottom chambers and counted by flow cytometry. The percentages of migration were calculated for each experimental collection."}, "[8]": {"tested_on": "PANC-1 cells", "assay": "PANC-1 cell proliferation (Cell Titer kit)", "settings": "5 and 20 μM, 24 hours, to a greater extent than GSK-7975A and SKF-93365", "protocol": "Analysis of Cell Proliferation. For PANC-1 cell proliferation and cell cytotoxicity measurements, […] were seeded in 96 well-plates in 100 μL of DMEM medium. Cells were incubated for 24 hours at 37° C. with 3 different SOCE inhibitors (GSK-7975-A, SKF-93365 and 6αa) at 2 different concentrations (5 and 20 μM) compared to DMSO and untreated cells. Cell proliferation was evaluated using the Cell Titer kit proliferation assay (Promega). Cytotoxicity was evaluated using the Cell Tox green cytotoxicity assay (Promega). All the kits were used following manufacturer recommendations and using a plate reader."}, "[9]": {"tested_on": "PANC-1 cells", "assay": "PANC-1 cell apoptosis (AnnexinV-FiTC/PI, flow cytometry)", "settings": "even at a concentration of 5 μM", "protocol": "Analysis of Cell Apoptosis. For PANC-1 cell apoptosis measurements, 5×10^6 cells were seeded in 12 well-plates. Cells were incubated for 24 hours with a test compound (GSK-7975-A, SKF-93365 and 6αa) at two different concentrations (5 and 20 μM) compared to DMSO and untreated cells at 37° C. After washing, cells were taken off plates using an enzyme-free solution. Cells were centrifuged for 5 minutes at 1500 rpm and suspended in […] of PBS containing 1 μL of AnnexinV-FiTC and 1 μL of propidium iodide (PI) for 15 minutes at room temperature in the dark. Evaluation of Annexin and PI staining was performed using a flow cytometer (Navios, Beckman Counter) to evaluate cell apoptosis and necrosis."}, "[10]": {"settings": "Lymphocyte, DMSO control 100%, read-out: Effect on amplitude of SOCE Peak"}, "[11]": {"settings": "Lymphocyte, thapsigargin (Tg) peak, read-out: Effect on amplitude of Tg Peak"}}, "note": "Like-named read-outs stand apart in the source and are kept apart here."}
{"smiles": "COc1ccc(CCOc2ccc(CCn3cnc4ccccc43)cc2)cc1", "note": "[6αa DAD 3-473, 1-[4-(4-Methoxyphenethoxy)phenethyl]-1H-benzo[d]imidazole]", "values": [{"measurement": "inhibition at 0.1 µM", "setting": "[1]; [10]", "value": 3, "unit": "%"}, {"measurement": "inhibition at 0.1 µM", "setting": "[1]; [11]", "value": -5, "unit": "%"}, {"measurement": "inhibition at 1 µM", "setting": "[1]; [10]", "value": -2, "unit": "%"}, {"measurement": "inhibition at 1 µM", "setting": "[1]; [11]", "value": -7, "unit": "%"}, {"measurement": "inhibition at 10 µM", "setting": "[1]; [10]", "value": 24, "unit": "%"}, {"measurement": "inhibition at 10 µM", "setting": "[1]; [11]", "value": 5, "unit": "%"}, {"measurement": "inhibition at 50 µM", "setting": "[1]; [10]", "value": 79, "unit": "%"}, {"measurement": "inhibition at 50 µM", "setting": "[1]; [11]", "value": 5, "unit": "%"}, {"measurement": "inhibition at 100 µM", "setting": "[1]; [10]", "value": 81, "unit": "%"}, {"measurement": "inhibition at 100 µM", "setting": "[1]; [11]", "value": 2, "unit": "%"}, {"measurement": "IC50", "setting": "[1]; Lymphocyte, SOCE in PLP-B lymphocytes, average of three assays, ±0.5 μM", "value": 15.4, "unit": "µM"}, {"measurement": "effectiveness as modulator that inhibits SOCE without inhibiting Ca2+ release from ER stores", "setting": "[1]; comparison of the series tested", "value": "best candidate"}, {"measurement": "Effect on amplitude of SOCE peak", "setting": "[2]; 1 μM", "value": 8, "unit": "%"}, {"measurement": "Effect on amplitude of SOCE peak", "setting": "[2]; 5 μM", "value": "−15", "unit": "%"}, {"measurement": "Effect on amplitude of SOCE peak", "setting": "[2]; 10 μM", "value": "−73", "unit": "%"}, {"measurement": "Effect on amplitude of SOCE peak", "setting": "[2]; 50 μM", "value": "−91", "unit": "%"}, {"measurement": "IC50", "setting": "[2]; Homo sapiens, HEK293, average of three assays, ±0.5 μM", "value": 5.1, "unit": "µM"}, {"measurement": "Effect on amplitude of SOCE peak", "setting": "[3]; 5 μM", "value": "−5", "unit": "%"}, {"measurement": "Effect on amplitude of SOCE peak", "setting": "[3]; 10 μM", "value": "−35", "unit": "%"}, {"measurement": "Effect on amplitude of SOCE peak", "setting": "[3]; 50 μM", "value": "−86", "unit": "%"}, {"measurement": "IC50", "setting": "[3]; average of three assays, ±0.5 μM", "value": 25, "unit": "µM"}, {"measurement": "amplitude of Ca2+ release from the endoplasmic stores", "setting": "[4]", "value": "not found to be significantly affected"}, {"measurement": "amplitude of SOCE", "setting": "[4]; 5 and 20 μM, compared to control, irrespective of incubation time (5, 15, 30 minutes, 1 hour)", "value": "significantly reduces"}, {"measurement": "death of B cells", "setting": "[5]; JOK B cells (FIG. 7)", "value": "does not induce death"}, {"measurement": "apoptosis or necrosis of cells", "setting": "[5]; JOK B cells (FIG. 7), 5 or 20 μM, treated for 48 hours", "value": "do not induce apoptosis or necrosis"}, {"measurement": "cell survival", "setting": "[5]; JOK cells", "value": "without significant reduction"}, {"measurement": "death of HUVEC cells", "setting": "[6]", "value": "does not induce death"}, {"measurement": "apoptosis or necrosis of cells", "setting": "[6]; 5 or 20 μM, treated for 48 hours", "value": "do not induce apoptosis or necrosis"}, {"measurement": "transendothelial migration through HUVEC of JOK cells", "setting": "[7]", "value": "does significantly inhibit"}, {"measurement": "PANC-1 proliferation", "setting": "[8]", "value": "significantly reduces"}, {"measurement": "PANC-1 cell death by apoptosis", "setting": "[9]", "value": "induces PANC-1 cells by apoptosis"}]}
